Tests used:
[1] = test system: Tyrosine-protein kinase ABL1 (Homo sapiens), P00519 [E255K]; conditions: Compound concentration 1000.0 nM
[2] = target: Activin receptor type-1B (Homo sapiens) (UniProt P36896); conditions: Compound concentration 1000.0 nM
[3] = target: Serine/threonine-protein kinase N1 (Homo sapiens) (UniProt Q16512); conditions: Compound concentration 1000.0 nM
[4] = target: Calcium/calmodulin-dependent protein kinase type II subunit gamma (Homo sapiens) (UniProt Q13555); conditions: Compound concentration 1000.0 nM
[5] = target: Cyclin-dependent kinase 3 (Homo sapiens) (UniProt Q00526); conditions: Compound concentration 1000.0 nM
[6] = target: Serine/threonine-protein kinase MRCK gamma (Homo sapiens) (UniProt Q6DT37); conditions: Compound concentration 1000.0 nM
[7] = target: Calcium/calmodulin-dependent protein kinase type 1 (Homo sapiens) (UniProt Q14012); conditions: Compound concentration 1000.0 nM
[8] = test system: Leucine-rich repeat serine/threonine-protein kinase 2 (Homo sapiens), Q5S007 [G2019S]; conditions: Compound concentration 1000.0 nM
[9] = target: Cyclin-dependent kinase 7 (Homo sapiens) (UniProt P50613); conditions: Compound concentration 1000.0 nM
[10] = target: Tyrosine-protein kinase JAK2 (Homo sapiens) (UniProt O60674); conditions: Compound concentration 1000.0 nM
[11] = target: Serine/threonine-protein kinase 17A (Homo sapiens) (UniProt Q9UEE5); conditions: Compound concentration 1000.0 nM
[12] = target: Sigma non-opioid intracellular receptor 1 (Homo sapiens) (UniProt Q99720); assay: sigma (non-selective) (h) Eurofins-Cerep binding assay; set-up: ligand concentration 10 nM; conditions: filed as agonist, Compound concentration 10.0 uM
[13] = target: Mitogen-activated protein kinase 11 (Homo sapiens) (UniProt Q15759); conditions: Compound concentration 1000.0 nM
[14] = target: Protein kinase C eta type (Homo sapiens) (UniProt P24723); conditions: Compound concentration 1000.0 nM
[15] = test system: Epidermal growth factor receptor (Homo sapiens), P00533 [UNDEFINED MUTATION]; conditions: Compound concentration 1000.0 nM
[16] = target: D(1A) dopamine receptor (Homo sapiens) (UniProt P21728); assay: D1 (h) Eurofins-Cerep binding assay; set-up: ligand concentration 0.3 nM; conditions: filed as antagonist, Compound concentration 10.0 uM
[17] = target: Serine/threonine-protein kinase ULK2 (Homo sapiens) (UniProt Q8IYT8); conditions: Compound concentration 1000.0 nM
[18] = target: B2 bradykinin receptor (Homo sapiens) (UniProt P30411); assay: B2 (h) Eurofins-Cerep binding assay; set-up: ligand concentration 0.3 nM; conditions: filed as agonist, Compound concentration 10.0 uM
[19] = target: Serine/threonine-protein kinase DCLK2 (Homo sapiens) (UniProt Q8N568); conditions: Compound concentration 1000.0 nM
[20] = target: Proto-oncogene tyrosine-protein kinase receptor Ret (Homo sapiens) (UniProt P07949); conditions: Compound concentration 1000.0 nM
[21] = target: Receptor tyrosine-protein kinase erbB-3 (Homo sapiens) (UniProt P21860); conditions: Compound concentration 1000.0 nM
[22] = target: Calcium/calmodulin-dependent protein kinase type IV (Homo sapiens) (UniProt Q16566); conditions: Compound concentration 1000.0 nM
[23] = target: Cyclin-dependent kinase 4 (Homo sapiens) (UniProt P11802); conditions: Compound concentration 1000.0 nM
[24] = target: Phosphatidylinositol 5-phosphate 4-kinase type-2 gamma (Homo sapiens) (UniProt Q8TBX8); conditions: Compound concentration 1000.0 nM
[25] = target: Endothelin receptor type B (Homo sapiens) (UniProt P24530); assay: ETB (h) Eurofins-Cerep binding assay; set-up: ligand concentration 0.03 nM; conditions: filed as agonist, Compound concentration 10.0 uM
[26] = target: Myosin-IIIa (Homo sapiens) (UniProt Q8NEV4); conditions: Compound concentration 1000.0 nM
[27] = target: GABA-A receptor; alpha-1/beta-2/gamma-2 (Homo sapiens) (UniProt P14867+P47870+P18507); assay: GABAA1 (h) (alpha1,beta2,gamma2) Eurofins-Cerep binding assay; type: protein-complex assay; set-up: ligand concentration 15 nM; conditions: filed as agonist, Compound concentration 10.0 uM
[28] = target: Homeodomain-interacting protein kinase 4 (Homo sapiens) (UniProt Q8NE63); conditions: Compound concentration 1000.0 nM
[29] = target: Serine/threonine-protein kinase Nek7 (Homo sapiens) (UniProt Q8TDX7); conditions: Compound concentration 1000.0 nM
[30] = test system: ALK tyrosine kinase receptor (Homo sapiens), Q9UM73 [C1156Y]; conditions: Compound concentration 1000.0 nM
[31] = target: Neuropeptide Y receptor type 1 (Homo sapiens) (UniProt P25929); assay: Y1 (h) Eurofins-Cerep binding assay; set-up: ligand concentration 0.025 nM; conditions: filed as agonist, Compound concentration 10.0 uM
[32] = test system: Phosphatidylinositol 4,5-bisphosphate 3-kinase catalytic subunit alpha isoform (Homo sapiens), P42336 [Q546K]; conditions: Compound concentration 1000.0 nM
[33] = target: Bone morphogenetic protein receptor type-1A (Homo sapiens) (UniProt P36894); conditions: Compound concentration 1000.0 nM
[34] = target: Serine/threonine-protein kinase TAO2 (Homo sapiens) (UniProt Q9UL54); conditions: Compound concentration 1000.0 nM
[35] = target: Prostaglandin G/H synthase 2 (Homo sapiens) (UniProt P35354); assay: COX2(h) Eurofins-Cerep enzyme and uptake assay; conditions: Compound concentration 10.0 uM
[36] = target: Glycogen synthase kinase-3 alpha (Homo sapiens) (UniProt P49840); conditions: Compound concentration 1000.0 nM
[37] = target: Mitogen-activated protein kinase kinase kinase 14 (Homo sapiens) (UniProt Q99558); conditions: Compound concentration 1000.0 nM
[38] = target: Calcium/calmodulin-dependent protein kinase type II subunit delta (Homo sapiens) (UniProt Q13557); conditions: Compound concentration 1000.0 nM
[39] = target: GABA-A receptor; anion channel (Rattus norvegicus) (UniProt O09028+P15431+P18506+P18508+P19969+P20236+P23574+P23576+P28471+P28473+P30191+P62813+P63079+P63138+Q91ZM7+Q9ES14); conditions: Compound concentration 10.0 uM

Chain of Myosin-IIIa (Homo sapiens) (Q8NEV4 whole entry): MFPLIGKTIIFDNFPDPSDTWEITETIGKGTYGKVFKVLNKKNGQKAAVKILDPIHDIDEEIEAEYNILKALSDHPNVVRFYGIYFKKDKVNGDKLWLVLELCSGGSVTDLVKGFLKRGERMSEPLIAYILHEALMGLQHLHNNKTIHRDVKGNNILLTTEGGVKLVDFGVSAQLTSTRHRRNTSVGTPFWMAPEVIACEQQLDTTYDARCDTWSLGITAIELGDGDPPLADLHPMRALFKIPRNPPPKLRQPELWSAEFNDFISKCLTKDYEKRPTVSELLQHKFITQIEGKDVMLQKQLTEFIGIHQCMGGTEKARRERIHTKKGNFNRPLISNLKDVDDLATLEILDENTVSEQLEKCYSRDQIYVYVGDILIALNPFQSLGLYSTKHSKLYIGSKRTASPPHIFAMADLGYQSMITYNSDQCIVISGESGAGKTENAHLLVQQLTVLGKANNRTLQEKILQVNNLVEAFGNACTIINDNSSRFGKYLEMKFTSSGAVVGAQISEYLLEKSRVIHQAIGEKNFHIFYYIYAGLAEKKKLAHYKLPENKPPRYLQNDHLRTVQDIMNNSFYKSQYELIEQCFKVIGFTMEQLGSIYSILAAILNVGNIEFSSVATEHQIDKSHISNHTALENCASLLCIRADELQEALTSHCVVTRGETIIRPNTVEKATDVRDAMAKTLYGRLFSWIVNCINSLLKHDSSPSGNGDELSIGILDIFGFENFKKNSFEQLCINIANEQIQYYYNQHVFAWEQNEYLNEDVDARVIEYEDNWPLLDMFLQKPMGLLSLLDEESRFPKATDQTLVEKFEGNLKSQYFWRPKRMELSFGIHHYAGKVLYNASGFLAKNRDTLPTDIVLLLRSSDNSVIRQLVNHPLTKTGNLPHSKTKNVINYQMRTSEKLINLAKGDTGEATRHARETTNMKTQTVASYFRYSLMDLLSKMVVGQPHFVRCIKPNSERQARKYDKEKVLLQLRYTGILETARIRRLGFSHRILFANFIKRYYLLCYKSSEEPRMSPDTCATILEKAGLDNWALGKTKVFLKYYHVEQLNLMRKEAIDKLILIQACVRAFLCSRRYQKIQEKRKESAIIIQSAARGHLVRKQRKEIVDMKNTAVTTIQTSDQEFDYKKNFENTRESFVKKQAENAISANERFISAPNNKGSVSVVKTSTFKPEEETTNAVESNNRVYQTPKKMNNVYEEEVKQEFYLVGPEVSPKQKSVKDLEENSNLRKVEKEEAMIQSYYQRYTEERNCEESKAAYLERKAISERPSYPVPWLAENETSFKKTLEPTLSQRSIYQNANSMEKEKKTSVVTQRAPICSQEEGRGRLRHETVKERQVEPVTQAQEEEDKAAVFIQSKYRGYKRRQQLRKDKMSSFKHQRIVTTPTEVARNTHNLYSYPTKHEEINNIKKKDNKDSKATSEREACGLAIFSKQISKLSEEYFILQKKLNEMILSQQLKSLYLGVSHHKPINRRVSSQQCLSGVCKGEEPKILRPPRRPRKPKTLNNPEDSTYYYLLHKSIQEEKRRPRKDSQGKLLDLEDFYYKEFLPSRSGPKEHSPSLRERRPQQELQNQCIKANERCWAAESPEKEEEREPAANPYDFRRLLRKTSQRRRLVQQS
Chain of Leucine-rich repeat serine/threonine-protein kinase 2 (Homo sapiens), Q5S007 [G2019S] (Q5S007 whole entry G2019S): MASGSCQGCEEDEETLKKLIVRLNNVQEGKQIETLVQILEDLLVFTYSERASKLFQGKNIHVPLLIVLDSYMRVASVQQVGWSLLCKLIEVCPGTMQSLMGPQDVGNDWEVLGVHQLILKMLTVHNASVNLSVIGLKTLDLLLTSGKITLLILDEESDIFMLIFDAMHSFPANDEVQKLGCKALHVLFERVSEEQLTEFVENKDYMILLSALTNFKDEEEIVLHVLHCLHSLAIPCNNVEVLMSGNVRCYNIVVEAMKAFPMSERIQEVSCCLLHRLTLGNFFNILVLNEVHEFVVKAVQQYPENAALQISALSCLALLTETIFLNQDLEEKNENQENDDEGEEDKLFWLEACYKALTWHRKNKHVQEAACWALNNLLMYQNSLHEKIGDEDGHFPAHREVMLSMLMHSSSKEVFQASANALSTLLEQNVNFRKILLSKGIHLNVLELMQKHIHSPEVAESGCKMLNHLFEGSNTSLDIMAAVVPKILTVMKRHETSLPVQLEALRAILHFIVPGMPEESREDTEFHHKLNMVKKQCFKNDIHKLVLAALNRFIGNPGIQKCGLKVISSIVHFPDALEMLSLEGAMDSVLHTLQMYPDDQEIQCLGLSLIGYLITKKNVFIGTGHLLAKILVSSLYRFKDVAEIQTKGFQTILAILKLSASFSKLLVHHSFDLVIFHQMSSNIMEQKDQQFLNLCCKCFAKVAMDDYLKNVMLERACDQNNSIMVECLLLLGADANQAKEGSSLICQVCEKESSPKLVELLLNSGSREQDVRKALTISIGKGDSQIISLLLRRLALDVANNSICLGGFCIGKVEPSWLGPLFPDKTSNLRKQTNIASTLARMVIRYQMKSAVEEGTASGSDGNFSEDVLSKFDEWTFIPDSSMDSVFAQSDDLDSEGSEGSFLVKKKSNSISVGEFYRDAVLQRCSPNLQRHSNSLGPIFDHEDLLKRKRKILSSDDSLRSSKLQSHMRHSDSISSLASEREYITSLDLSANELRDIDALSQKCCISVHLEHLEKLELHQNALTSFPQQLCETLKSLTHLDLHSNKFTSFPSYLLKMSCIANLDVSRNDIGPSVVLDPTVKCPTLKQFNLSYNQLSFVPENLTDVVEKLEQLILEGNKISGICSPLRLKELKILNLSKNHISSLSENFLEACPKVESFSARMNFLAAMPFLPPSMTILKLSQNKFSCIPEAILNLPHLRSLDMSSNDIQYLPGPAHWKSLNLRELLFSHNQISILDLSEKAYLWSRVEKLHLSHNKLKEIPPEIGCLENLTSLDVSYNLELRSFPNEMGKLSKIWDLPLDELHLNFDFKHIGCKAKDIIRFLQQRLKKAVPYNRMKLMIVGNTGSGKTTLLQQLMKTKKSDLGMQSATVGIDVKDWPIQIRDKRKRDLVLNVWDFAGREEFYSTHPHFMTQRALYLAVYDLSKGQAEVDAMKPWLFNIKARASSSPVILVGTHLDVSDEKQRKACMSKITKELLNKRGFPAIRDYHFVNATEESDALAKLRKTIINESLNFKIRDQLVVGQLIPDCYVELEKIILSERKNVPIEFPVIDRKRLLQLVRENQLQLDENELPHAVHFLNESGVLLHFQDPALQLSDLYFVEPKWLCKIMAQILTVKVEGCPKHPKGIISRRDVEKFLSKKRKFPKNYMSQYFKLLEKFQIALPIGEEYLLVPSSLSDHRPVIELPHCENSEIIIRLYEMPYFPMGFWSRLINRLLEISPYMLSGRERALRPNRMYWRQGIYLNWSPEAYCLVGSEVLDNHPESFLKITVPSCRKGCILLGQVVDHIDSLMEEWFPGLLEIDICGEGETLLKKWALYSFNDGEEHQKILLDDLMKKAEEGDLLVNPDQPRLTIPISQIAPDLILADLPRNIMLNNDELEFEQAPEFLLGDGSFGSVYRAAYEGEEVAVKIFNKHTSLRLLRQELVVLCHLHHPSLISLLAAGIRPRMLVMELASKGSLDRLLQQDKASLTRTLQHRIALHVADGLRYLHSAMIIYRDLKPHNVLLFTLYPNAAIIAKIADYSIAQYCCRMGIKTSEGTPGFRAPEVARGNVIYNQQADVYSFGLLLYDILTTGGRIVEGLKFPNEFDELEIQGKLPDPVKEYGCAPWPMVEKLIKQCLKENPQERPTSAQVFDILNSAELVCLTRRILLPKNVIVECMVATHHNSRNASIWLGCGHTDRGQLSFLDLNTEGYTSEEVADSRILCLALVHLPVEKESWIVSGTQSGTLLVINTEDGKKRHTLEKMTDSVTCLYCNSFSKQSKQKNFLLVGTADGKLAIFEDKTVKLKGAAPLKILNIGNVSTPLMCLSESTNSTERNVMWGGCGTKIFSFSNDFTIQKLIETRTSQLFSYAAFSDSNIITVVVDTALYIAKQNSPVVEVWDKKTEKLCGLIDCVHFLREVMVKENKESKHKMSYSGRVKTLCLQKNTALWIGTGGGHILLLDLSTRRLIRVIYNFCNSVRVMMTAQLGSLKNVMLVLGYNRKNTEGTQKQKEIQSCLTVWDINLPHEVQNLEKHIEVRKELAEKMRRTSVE
Chain of Sigma non-opioid intracellular receptor 1 (Homo sapiens) (Q99720 whole entry): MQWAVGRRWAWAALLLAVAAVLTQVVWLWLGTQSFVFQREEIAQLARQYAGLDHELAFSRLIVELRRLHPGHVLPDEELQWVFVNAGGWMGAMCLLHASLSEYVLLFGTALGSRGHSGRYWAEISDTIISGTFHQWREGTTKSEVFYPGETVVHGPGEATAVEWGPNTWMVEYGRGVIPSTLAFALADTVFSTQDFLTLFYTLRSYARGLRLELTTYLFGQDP
Chain of Calcium/calmodulin-dependent protein kinase type 1 (Homo sapiens) (Q14012 whole entry, looked up): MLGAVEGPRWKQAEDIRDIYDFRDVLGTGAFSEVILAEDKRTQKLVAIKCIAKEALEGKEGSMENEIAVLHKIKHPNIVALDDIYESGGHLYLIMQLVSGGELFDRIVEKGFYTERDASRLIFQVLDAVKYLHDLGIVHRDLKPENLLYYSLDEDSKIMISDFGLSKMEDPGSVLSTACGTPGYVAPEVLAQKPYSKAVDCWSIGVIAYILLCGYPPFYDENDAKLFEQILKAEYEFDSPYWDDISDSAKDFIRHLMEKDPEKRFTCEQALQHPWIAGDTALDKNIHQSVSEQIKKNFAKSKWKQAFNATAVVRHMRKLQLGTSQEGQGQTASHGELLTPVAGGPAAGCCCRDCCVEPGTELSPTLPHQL
Chain of Cyclin-dependent kinase 7 (Homo sapiens) (P50613 whole entry): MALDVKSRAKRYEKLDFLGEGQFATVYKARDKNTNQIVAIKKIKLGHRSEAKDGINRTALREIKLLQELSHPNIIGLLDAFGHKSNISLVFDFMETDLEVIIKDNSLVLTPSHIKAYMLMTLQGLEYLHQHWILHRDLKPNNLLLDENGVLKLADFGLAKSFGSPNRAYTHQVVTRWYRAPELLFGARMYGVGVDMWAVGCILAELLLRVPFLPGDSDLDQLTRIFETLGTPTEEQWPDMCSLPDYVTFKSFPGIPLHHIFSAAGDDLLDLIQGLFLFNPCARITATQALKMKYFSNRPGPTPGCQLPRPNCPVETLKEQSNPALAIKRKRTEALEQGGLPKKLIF

Compound	residual activity [1] [%]	residual activity [2] [%]	residual activity [3] [%]	residual activity [4] [%]	residual activity [5] [%]	residual activity [6] [%]	residual activity [7] [%]	residual activity [8] [%]	residual activity [9] [%]	residual activity [10] [%]	residual activity [11] [%]	% Inhibition of Control Specific Binding (Mean n=2) [12] [%]	residual activity [13] [%]	residual activity [14] [%]	residual activity [15] [%]	% Inhibition of Control Specific Binding (Mean n=2) [16] [%]	residual activity [17] [%]	% Inhibition of Control Specific Binding (Mean n=2) [18] [%]	residual activity [19] [%]	residual activity [20] [%]	other results
O=C(NS(=O)(=O)c1ccc(NCC2CCOCC2)c([N+](=O)[O-])c1)c1ccc(N2CCN(Cc3ccc(C(F)(F)F)cc3-c3ccc(Cl)cc3)CC2)cc1Oc1cnc2[nH]ccc2c1 [A-1210227]	91	59	100	88	100	100	100	88	96	90	100	-104	78	100	88	6.4	100	-2.1	100	96	residual activity [21]: 100%; residual activity [22]: 100%; residual activity [23]: 100%; residual activity [24]: 100%; % Inhibition of Control Specific Binding (Mean n=2) [25]: -11.8%; residual activity [26]: 85%; % Inhibition of Control Specific Binding (Mean n=2) [27]: -0.7%; residual activity [28]: 98%; residual activity [29]: 97%; residual activity [30]: 100%; % Inhibition of Control Specific Binding (Mean n=2) [31]: 3.1%; residual activity [32]: 100%; residual activity [33]: 81%; residual activity [34]: 82%; % Inhibition of Control Values (Mean n=2) [35]: 78.1%; residual activity [36]: 100%; residual activity [37]: 65%; residual activity [38]: 100%; inhibition [39]: 17.9%
CO[C@H]1CC[C@H](CNc2ccc(S(=O)(=O)NC(=O)c3ccc(N4CCN(CC5=C(c6ccc(Cl)cc6)CC(C)(C)CC5)CC4)cc3Oc3cnc4[nH]ccc4c3)cc2[N+](=O)[O-])CC1 [A-1211212]	74	67	83	75	100	75	88	100	100	89	88	22.4	60	60	65	0.7	100	-15.7	100	100	residual activity [21]: 100%; residual activity [22]: 100%; residual activity [23]: 100%; residual activity [24]: 85%; % Inhibition of Control Specific Binding (Mean n=2) [25]: -6.7%; residual activity [26]: 82%; % Inhibition of Control Specific Binding (Mean n=2) [27]: -12.2%; residual activity [28]: 4.4%; residual activity [29]: 82%; residual activity [30]: 100%; % Inhibition of Control Specific Binding (Mean n=2) [31]: 5.9%; residual activity [32]: 100%; residual activity [33]: 57%; residual activity [34]: 86%; % Inhibition of Control Values (Mean n=2) [35]: 14.2%; residual activity [36]: 100%; residual activity [37]: 100%; residual activity [38]: 96%; inhibition [39]: 23.6%
